Experimental data taken from PubChem BioAssay AID1918956 (Molecular Pharmacology Branch, DTP, NCI, 2023).
Where “and” joins values, the source holds several entries; their conditions need not be identical. Equal values may be shown once.

Test system: OVCAR-5 complex spheroids, viability
Experiment: Anticancer human tumor OVCAR-5 cell line growth inhibition;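 further: spheroids exposed to agents for seven days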;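 on viability, T/C: 100% = DMSO vehicle control wells viability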
Conditions: for viability, T/C: stronger effect = lower value; active means viability on the fitted dose curve at most 10% of control; inactive means the rest
Outline: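 Multicellular complex spheroids of tumor cells with human endothelial cells (HUVEC) and mesenchymal stem cells; the LSD1 inhibitor iadademstat was combined with standard-of-care or investigational agents. Top concentration at or near clinical Cmax, half-log dilutions; final DMSO ≤0.25%.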

O=C(C=Cn1cnc(-c2cc(C(F)(F)F)cc(C(F)(F)F)c2)n1)NNc1cnccn1 + NC1CC1c1ccc(-c2cccc(O)c2)cc1
50.5 nM: IC50 (curve of first compound, second compound 0.316 µM)
23 nM: IC50 (curve of first compound, second compound 3.16 µM)
19.8 nM: IC50 (curve of first compound, second compound 10 µM)
55.6 nM: IC50 (curve of first compound, second compound 0.1 µM)
39.1 nM: IC50 (curve of first compound, second compound 1 µM)
inactive: viability, T/C (second compound 0.1 µM, first compound 0.00316 µM) 88.9% | viability, T/C (second compound 0.1 µM, first compound 0.01 µM) 73.9% | viability, T/C (second compound 0.1 µM, first compound 0.0316 µM) 57.2% | viability, T/C (second compound 0.1 µM, first compound 0.1 µM) 42.1% | viability, T/C (second compound 0.1 µM, first compound 0.316 µM) 38% | viability, T/C (second compound 0.1 µM, first compound 1 µM) 33.9% | viability, T/C (second compound 0.316 µM, first compound 0.00316 µM) 87.8% | viability, T/C (second compound 0.316 µM, first compound 0.01 µM) 72% | viability, T/C (second compound 0.316 µM, first compound 0.0316 µM) 54.9% | viability, T/C (second compound 0.316 µM, first compound 0.1 µM) 42.2% | viability, T/C (second compound 0.316 µM, first compound 0.316 µM) 39.1% | viability, T/C (second compound 0.316 µM, first compound 1 µM) 34.4% | viability, T/C (second compound 1 µM, first compound 0.00316 µM) 84% | viability, T/C (second compound 1 µM, first compound 0.01 µM) 65.9% | viability, T/C (second compound 1 µM, first compound 0.0316 µM) 53.8% | viability, T/C (second compound 1 µM, first compound 0.1 µM) 39.4% | viability, T/C (second compound 1 µM, first compound 0.316 µM) 36.2% | viability, T/C (second compound 1 µM, first compound 1 µM) 31.7% | viability, T/C (second compound 3.16 µM, first compound 0.00316 µM) 81.7% | viability, T/C (second compound 3.16 µM, first compound 0.01 µM) 62.9% | viability, T/C (second compound 3.16 µM, first compound 0.0316 µM) 43.1% | viability, T/C (second compound 3.16 µM, first compound 0.1 µM) 38.5% | viability, T/C (second compound 3.16 µM, first compound 0.316 µM) 34.7% | viability, T/C (second compound 3.16 µM, first compound 1 µM) 29.7% | viability, T/C (second compound 10 µM, first compound 0.00316 µM) 79% | viability, T/C (second compound 10 µM, first compound 0.01 µM) 60.8% | viability, T/C (second compound 10 µM, first compound 0.0316 µM) 42.6% | viability, T/C (second compound 10 µM, first compound 0.1 µM) 36.6% | viability, T/C (second compound 10 µM, first compound 0.316 µM) 33.6% | viability, T/C (second compound 10 µM, first compound 1 µM) 35.2%

NC1CC1c1ccc(-c2cccc(O)c2)cc1 (stereo not drawn)
inactive: viability, T/C (compound 10 µM) 89.8% [middle of 25 runs]
> 10000 nM: IC50 (compound alone, run of 12/07/2021)

CC[C@@]1(O)C(=O)OCc2c1cc1n(c2=O)Cc2cc3c(CN(C)C)c(O)ccc3nc2-1
8.81 nM and 2.98 nM: IC50 (curve of compound)
inactive: viability, T/C (compound 0.000316 µM) 102% and 99% | viability, T/C (compound 0.001 µM) 93% and 93.4% | viability, T/C (compound 0.00316 µM) 57% and 47.1% | viability, T/C (compound 0.01 µM) 46.6% and 31.7% | viability, T/C (compound 0.0316 µM) 47.1% and 34.3% | viability, T/C (compound 0.1 µM) 24% and 18.9%

O=C(C=Cn1cnc(-c2cc(C(F)(F)F)cc(C(F)(F)F)c2)n1)NNc1cnccn1
inactive: viability, T/C (compound 0.00316 µM) 91.8% and 90.3% | viability, T/C (compound 0.01 µM) 83.9% and 74.8% | viability, T/C (compound 0.0316 µM) 72.3% and 58.3% | viability, T/C (compound 0.1 µM) 53.3% and 44% | viability, T/C (compound 0.316 µM) 48.7% and 38.9% | viability, T/C (compound 1 µM) 40.4% and 34.1%
196 nM and 63.7 nM: IC50 (curve of compound)

CC(C)CC(NC(=O)C(Cc1ccccc1)NC(=O)c1cnccn1)B(O)O (stereo not drawn)
inactive: viability, T/C (compound 0.000316 µM) 101% and 95.8% | viability, T/C (compound 0.001 µM) 108% and 93.7% | viability, T/C (compound 0.00316 µM) 79.5% and 72.4% | viability, T/C (compound 0.01 µM) 44.7% and 39.4% | viability, T/C (compound 0.0316 µM) 19.9% and 15.4%
8.4 nM and 6.94 nM: IC50 (curve of compound)
10% and 7.18%: viability, T/C (compound 0.1 µM)
